Counter-ions that a name gives are not always drawn. A value given as a limit tells only on which side of the number the result lay.

Chain of recombinant human HPK1 (Q92918 whole entry): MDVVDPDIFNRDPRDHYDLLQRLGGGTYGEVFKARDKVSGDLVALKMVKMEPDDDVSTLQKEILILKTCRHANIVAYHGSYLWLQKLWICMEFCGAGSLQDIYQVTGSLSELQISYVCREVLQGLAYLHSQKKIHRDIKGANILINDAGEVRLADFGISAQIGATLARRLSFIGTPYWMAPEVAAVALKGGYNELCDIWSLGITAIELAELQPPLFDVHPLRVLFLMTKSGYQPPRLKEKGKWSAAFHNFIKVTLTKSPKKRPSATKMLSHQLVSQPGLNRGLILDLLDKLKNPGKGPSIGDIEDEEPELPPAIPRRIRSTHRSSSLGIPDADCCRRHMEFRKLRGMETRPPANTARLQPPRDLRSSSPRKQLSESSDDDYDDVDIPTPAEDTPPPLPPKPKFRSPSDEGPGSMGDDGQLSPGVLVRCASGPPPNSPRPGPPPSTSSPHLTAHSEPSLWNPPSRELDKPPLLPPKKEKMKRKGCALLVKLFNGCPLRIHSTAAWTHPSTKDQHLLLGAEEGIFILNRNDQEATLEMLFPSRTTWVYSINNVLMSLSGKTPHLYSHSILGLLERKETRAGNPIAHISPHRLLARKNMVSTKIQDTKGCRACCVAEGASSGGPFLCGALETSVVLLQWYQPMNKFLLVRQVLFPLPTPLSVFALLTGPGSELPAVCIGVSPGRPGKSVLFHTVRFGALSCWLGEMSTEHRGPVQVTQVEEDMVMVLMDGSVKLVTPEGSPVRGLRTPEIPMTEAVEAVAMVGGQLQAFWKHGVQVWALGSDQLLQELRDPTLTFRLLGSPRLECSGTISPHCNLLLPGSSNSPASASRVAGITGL

The target in the test is recombinant human HPK1 (Homo sapiens (Human), UniProt Q92918). Nature of the test: HPK1 kinase assay (Promega ADP-Glo kinase assay). The class given is biochemical. As to conditions: In vitro activity against HPK1, 5 ng HPK1, MBP substrate, ATP 25 μM, 30° C. 40 minutes. The method, then:
HPK1 kinase activity was measured by Promega's ADP-Glo™ kinase assay. In this assay, 5 ng of recombinant human HPK1 (signalchem) is incubated with 5 μL of compounds (0.5% DMSO), 5 μL of MBP (0.5 μg/μl) and 5 μL of ATP (25 μM) in buffer (40 mM Tris, 7.5; 20 mM MgCl2; 0.1 mg/ml BSA; 50 μM DTT.). The assay was started by incubating the reaction mixture in a 96-well plate at 30° C. for 40 minutes. After the incubation, 25 μL ADP-Glo reagent was added and the reaction was incubated at room temperature for 40-min to stop the reaction and degrade residual ATP. The ADP product was then converted to ATP by adding 50 μL per well of detection reagent. Luminescence was detected after 30-min room temperature incubation with the Molecular device I3X plate reader. The IC50 values were calculated from a series of percent inhibition values determined at a range of inhibitor concentration using software routines as implemented in the GraphPad Prism 7 software and SigmaPlot13.0.
What is called IC50 is the concentration at which inhibition is half-maximal. For `COC(=O)C1OC(N(c2c(F)c(Cl)c(-c3cn4cc(NC(=O)[C@@H]5C[C@@H]5F)nc4cn3)c3cn[nH]c23)C(C)C)C(OC(C)=O)C(OC(C)=O)C1OC(C)=O` (stereo partly drawn) [Example 18, 2-((5-chloro-6-fluoro-4-(2-((1S,2S)-2-fluorocyclopropane-1-carboxamido)imidazo[1,2-a]pyrazin-6-yl)-1H-indazol-7-yl)(isopropyl)amino)-6-(methoxycarbonyl)tetrahydro-2H-pyran-3,4,5-triyl triacetate], the IC50 was 0.101 to 0.5 µM. For `Cc1c(F)c(C(C)CO)c2[nH]ncc2c1-c1cn2cc(NC(=O)[C@@H]3C[C@@H]3F)nc2cn1` (stereo partly drawn) [Example 8, (1S,2S)-2-fluoro-N-(6-(6-fluoro-7-(1-hydroxypropan-2-yl)-5-methyl-1H-indazol-4-yl)imidazo[1,2-a]pyrazin-2-yl)cyclopropane-1-carboxamide], the 50% inhibitory concentration (IC50) was below 0.1 µM. `COc1c(F)c(C(O)C2CC2)c2[nH]ncc2c1-c1cn2cc(NC(=O)[C@@H]3C[C@@H]3F)nc2cn1` (stereo partly drawn) [Example 127, (1S,2S)-N-(6-(7-(cyclopropyl(hydroxy)methyl)-6-fluoro-5-methoxy-1H-indazol-4-yl)imidazo[1,2-a]pyrazin-2-yl)-2-fluorocyclopropane-1-carboxamide]: the IC50 is below 0.1 µM. Consider `COc1c(F)c(C(C)O)c2[nH]ncc2c1-c1cn2cc(NC(=O)[C@@H]3C[C@@H]3F)nc2cn1` (stereo partly drawn) [Example 128, (1S,2S)-2-fluoro-N-(6-(6-fluoro-7-(1-hydroxyethyl)-5-methoxy-1H-indazol-4-yl)imidazo[1,2-a]pyrazin-2-yl)cyclopropane-1-carboxamide], for which the IC50 was below 0.1 µM. As to `CC(=O)Nc1cn2cc(-c3c(Cl)c(F)c(C(C)N4CC(O)C4)c4[nH]ncc34)ncc2n1` (centres unmarked) [Example 161, N-(6-(5-chloro-6-fluoro-7-(1-(3-hydroxyazetidin-1-yl)ethyl)-1H-indazol-4-yl)imidazo[1,2-a]pyrazin-2-yl)acetamide], the IC50 was in the range of 0.501 to 1 µM. In the case of `Cc1c(F)c(C(C2CC2)N2C(=O)c3ccccc3C2=O)c2[nH]ncc2c1-c1cn2cc(NC(=O)[C@@H]3C[C@@H]3F)nc2cn1` (stereo partly drawn) [Example 21, (1S,2S)-N-(6-(7-(cyclopropyl(1,3-dioxoisoindolin-2-yl)methyl)-6-fluoro-5-methyl-1H-indazol-4-yl)imidazo[1,2-a]pyrazin-2-yl)-2-fluorocyclopropane-1-carboxamid] it was below 0.1 µM; in that of `CC(=O)Nc1cn2cc(-c3c(Cl)c(F)c([C@H](C)NC=O)c4[nH]ncc34)ncc2n1` [Example 140, (S)-N-(6-(5-chloro-6-fluoro-7-(1-formamidoethyl)-1H-indazol-4-yl)imidazo[1,2-a]pyrazin-2-yl)acetamide], below 0.1 µM. `CC(=O)Nc1cn2cc(-c3c(Cl)c(F)c(OC4CNC4)c4[nH]ncc34)ncc2n1` [Example 147, N-(6-(7-(azetidin-3-yloxy)-5-chloro-6-fluoro-1H-indazol-4-yl)imidazo[1,2-a]pyrazin-2-yl)acetamide formate]: the IC50 lay in the range of 0.501 to 1 µM. The result for `CC(C)Nc1c(F)c(Cl)c(-c2cn3cc(NC(=O)C(F)F)nc3cn2)c2cn[nH]c12` [Example 122, N-(6-(5-chloro-6-fluoro-7-(isopropylamino)-1H-indazol-4-yl)imidazo[1,2-a]pyrazin-2-yl)-2,2-difluoroacetamide] reads below 0.1 µM. For the compound `C[C@@H](N[S@+]([O-])C(C)(C)C)c1c(F)c(Cl)c(-c2cn3cc(NC(=O)[C@@H]4C[C@@H]4F)nc3cn2)c2cn[nH]c12` [Example 133, (1S,2S)-N-(6-(7-((R)-1-(((R)-tert-butylsulfinyl)amino)ethyl)-5-chloro-6-fluoro-1H-indazol-4-yl)imidazo[1,2-a]pyrazin-2-yl)-2-fluorocyclopropane-1-carboxamide], the IC50 is below 0.1 µM. In the case of `CC(=O)Nc1cn2cc(-c3c(Cl)c(F)c(CN4CCC(O)C4)c4[nH]ncc34)ncc2n1` (centres unmarked) [Example 151, N-(6-(5-chloro-6-fluoro-7-((3-hydroxypyrrolidin-1-yl)methyl)-1H-indazol-4-yl)imidazo[1,2-a]pyrazin-2-yl)acetamide] it was 0.501 to 1 µM. Consider `Cc1c(F)c(C(NC(=O)C2CC2)C2CC2)c2[nH]ncc2c1-c1cn2cc(NC(=O)[C@@H]3C[C@@H]3F)nc2cn1` (stereo partly drawn) [Example 67, (1S,2S)-N-(6-(7-(cyclopropanecarboxamido(cyclopropyl)methyl)-6-fluoro-5-methyl-1H-indazol-4-yl)imidazo[1,2-a]pyrazin-2-yl)-2-fluorocyclopropane-1-carboxamide], for which the IC50 is below 0.1 µM. In the case of `CC(C)Nc1c(F)c(Cl)c(-c2cn3cc(NC(=O)N4CCOCC4)nc3cn2)c2cn[nH]c12` [Example 84, N-(6-(5-chloro-6-fluoro-7-(isopropylamino)-1H-indazol-4-yl)imidazo[1,2-a]pyrazin-2-yl)morpholine-4-carboxamide] it was below 0.1 µM.

As for `CC(=O)N1CC(Oc2c(F)c(Cl)c(-c3cn4cc(NC(=O)[C@@H]5C[C@@H]5F)nc4cn3)c3cn[nH]c23)C1` [Example 142, (1S,2S)-N-(6-(7-((1-acetylazetidin-3-yl)oxy)-5-chloro-6-fluoro-1H-indazol-4-yl)imidazo[1,2-a]pyrazin-2-yl)-2-fluorocyclopropane-1-carboxamide], the IC50 lay in the range of 0.101 to 0.5 µM. The result for `Cc1c(F)c(C2=CC(O)CC2)c2[nH]ncc2c1-c1cn2cc(NC(=O)[C@@H]3C[C@@H]3F)nc2cn1` (stereo partly drawn) [Example 15, (1S,2S)-2-fluoro-N-(6-(6-fluoro-7-(3-hydroxycyclopent-1-en-1-yl)-5-methyl-1H-indazol-4-yl)imidazo[1,2-a]pyrazin-2-yl)cyclopropane-1-carboxamide] reads below 0.1 µM; that for `CC(O)c1c(F)c(C(F)F)c(-c2cn3cc(NC(=O)[C@@H]4C[C@@H]4F)nc3cn2)c2cn[nH]c12` (stereo partly drawn) [Example 49, (1S,2S)-N-(6-(5-(difluoromethyl)-6-fluoro-7-(1-hydroxyethyl)-1H-indazol-4-yl)imidazo[1,2-a]pyrazin-2-yl)-2-fluorocyclopropane-1-carboxamide], below 0.1 µM; that for `CC(CO)c1c(F)c(C(F)(F)F)c(-c2cn3cc(NC(=O)[C@@H]4C[C@@H]4F)nc3cn2)c2cn[nH]c12` (stereo partly drawn) [Example 85, (1S,2S)-2-fluoro-N-(6-(6-fluoro-7-(1-hydroxypropan-2-yl)-5-(trifluoromethyl)-1H-indazol-4-yl)imidazo[1,2-a]pyrazin-2-yl)cyclopropane-1-carboxamide], below 0.1 µM. The result for `CC(=O)N(C)c1cn2cc(-c3c(Cl)c(F)c(NC(C)C)c4[nH]ncc34)ncc2n1` [Example 102, N-(6-(5-chloro-6-fluoro-7-(isopropylamino)-1H-indazol-4-yl)imidazo[1,2-a]pyrazin-2-yl)-N-methylacetamide] reads 0.501 to 1 µM.

As for `CC(N)c1c(F)c(C(F)(F)F)c(-c2cn3cc(NC(=O)[C@@H]4C[C@@H]4F)nc3cn2)c2cn[nH]c12` (stereo partly drawn) [Example 45, (1S,2S)-N-(6-(7-(1-aminoethyl)-6-fluoro-5-(trifluoromethyl)-1H-indazol-4-yl)imidazo[1,2-a]pyrazin-2-yl)-2-fluorocyclopropane-1-carboxamide], the IC50 lay within 0.501 to 1 µM. With `CC(NC=O)c1c(F)c(C(F)F)c(-c2cn3cc(NC(=O)[C@@H]4C[C@@H]4F)nc3cn2)c2cn[nH]c12` (stereo partly drawn) [Example 75, (1S,2S)-N-(6-(5-(difluoromethyl)-6-fluoro-7-(1-formamidoethyl)-1H-indazol-4-yl)imidazo[1,2-a]pyrazin-2-yl)-2-fluorocyclopropane-1-carboxamide], the IC50 was below 0.1 µM.

With `CC(C)Nc1c(F)c(Cl)c(-c2cn3cc(NC(=O)N4CCCC4)nc3cn2)c2cn[nH]c12` [Example 124, N-(6-(5-chloro-6-fluoro-7-(isopropylamino)-1H-indazol-4-yl)imidazo[1,2-a]pyrazin-2-yl)pyrrolidine-1-carboxamide], the IC50 was below 0.1 µM.

For `CC(C)Nc1c(F)c(Cl)c(-c2cn3cc(NC4CCOC4)nc3cn2)c2cn[nH]c12` (centres unmarked) [Example 101, 6-(5-chloro-6-fluoro-7-(isopropylamino)-1H-indazol-4-yl)-N-(tetrahydrofuran-3-yl)imidazo[1,2-a]pyrazin-2-amine], the IC50 fell in the range of 0.101 to 0.5 µM.

For the compound `CCOC(C)c1c(F)c(C)c(-c2cn3cc(NC(=O)[C@@H]4C[C@@H]4F)nc3cn2)c2cn[nH]c12` (stereo partly drawn) [Example 3, (1S,2S)-N-(6-(7-(1-ethoxyethyl)-6-fluoro-5-methyl-1H-indazol-4-yl)imidazo[1,2-a]pyrazin-2-yl)-2-fluorocyclopropane-1-carboxamide], the IC50 was in the range of 0.101 to 0.5 µM. In the case of `COC(=O)[C@H]1C[C@H]1C(=O)Nc1cn2cc(-c3c(Cl)c(F)c(NC(C)C)c4[nH]ncc34)ncc2n1` [Example 32, methyl (1S,2R)-2-((6-(5-chloro-6-fluoro-7-(isopropylamino)-1H-indazol-4-yl)imidazo[1,2-a]pyrazin-2-yl)carbamoyl)cyclopropane-1-carboxylate] it was below 0.1 µM; in that of `Cc1c(F)c(NC(C)C)c2[nH]ncc2c1-c1cn2cc(NC(=O)[C@@H]3C[C@H]3F)nc2cn1` [Example 34, (1S,2R)-2-fluoro-N-(6-(6-fluoro-7-(isopropylamino)-5-methyl-1H-indazol-4-yl)imidazo[1,2-a]pyrazin-2-yl)cyclopropane-1-carboxamide], below 0.1 µM. The result for `Cc1c(F)c(NC(C)C)c2[nH]ncc2c1-c1cn2cc(NC(=O)[C@H]3C[C@H]3F)nc2cn1` [Example 33] reads below 0.1 µM.
